The values that follow come from patent US20100256137A1, “INDAZOLAMIDE DERIVATIVES” (MERCK PATENT GESELLSCHAFT MIT BESCHRANKTER HAFTUNG, priority 2007, published 2010).

pIC50: −log10 of the molar value.

The experiment has as its target T1, Recombinant human HSP90a (Homo sapiens, UniProt P07900).
T1 construct: host or cells: E. coli
Description: HSP90 radioligand filter binding test ([3H]17AAG competition). The note with it: [3H]17AAG 0.08 μM, HSP90 1.5 μg/assay, 22° C., 30 min, pH 7.0; read-out: IC50 (HSP90 inhibition). How it is done: In the specific case, a radioligand filter binding test is used. The radioligand used here is tritium-labelled 17-allylaminogeldanamycin, [3H]17AAG. This filter binding test allows a targeted search for inhibitors which interfere with the ATP binding site.
HEPES filter buffer (50 mM HEPES, pH 7.0, 5 mM MgCl2, BSA 0.01%)
Multiscreen FB (1 μm) filter plate (Millipore, MAFBNOB 50).
The 96-well microtitre filter plates are firstly irrigated and coated with 0.1% of polyethylenimine.
The test is carried out under the following conditions:
Reaction temperature 22° C.
Reaction time: 30 min., shaking at 800 rpm
50 mM HEPES HCl, pH 7.0, 5 mM MgCl2, 0.01% (w/v) of BSA
At the end of the reaction, the supernatant in the filter plate is removed by suction with the aid of a vacuum manifold (Multiscreen Separation System, Millipore), and the filter is washed twice.
The filter plates are then measured in a beta counter (Microbeta, Wallac) with scintillator (Microscint 20, Packard).
“% of control” is determined from the “counts per minutes” values, and the IC-50 value of a compound is calculated therefrom.
Take `Cc1cccc(Cc2n[nH]c3cc(O)c(C(=O)N4Cc5ccccc5C4)cc23)c1` [Compound A1, 5-(1,3-dihydroisoindol-2-ylcarbonyl)-3-(3-methylbenzyl)-6-hydroxy-1H-indazole]: the negative-log IC50 (pIC50) – broadly, the negative decadic logarithm of the IC50, by convention in mol/L – is 6.00 to 8.00. `Cc1cccc(Cc2n[nH]c3cc(O)c(C(=O)N4CCc5ccccc5C4)cc23)c1` [Compound A2]: the pIC50 is 6.00 to 8.00. On to `COc1cccc(Cc2n[nH]c3cc(O)c(C(=O)N4Cc5ccccc5C4)cc23)c1` [Compound A3, 5-(1,3-Dihydroisoindol-2-ylcarbonyl)-3-(3-methoxybenzyl)-6-hydroxy-1H-indazole], for which the negative-log IC50 (pIC50) is 6.00 to 8.00.

Take `CCCCc1n[nH]c2cc(O)c(C(=O)N3Cc4ccccc4C3)cc12` [Compound A4, 5-(1,3-Dihydroisoindol-2-ylcarbonyl)-3-butyl-6-hydroxy-1H-indazole]: the negative logarithm of the IC50 (pIC50) is 6.00 to 8.00. Turning to `O=C(c1cc2c(Cc3cccc(Cl)c3)n[nH]c2cc1O)N1CCC(O)C1` (stereo not drawn) [Compound A5, 5-(3-Hydroxypyrrolidin-1-ylcarbonyl)-3-(3-chlorobenzyl)-6-hydroxy-1H-indazole], the pIC50 is 6.00 to 8.00.

With `O=C(c1cc2c(Cc3cccc(Cl)c3)n[nH]c2cc1O)N1CC[C@@H](O)C1` [Compound A7, 5-((R)-3-Hydroxypyrrolidin-1-ylcarbonyl)-3-(3-chlorobenzyl)-6-hydroxy-1H-indazole], the pIC50 was 6.00 to 8.00. In the case of `Cc1cccc(Cc2n[nH]c3cc(O)c(C(=O)N4CCOCC4)cc23)c1` [Compound A10], the pIC50 is 6.00 to 8.00.

On to `Cc1cccc(Cc2n[nH]c3cc(O)c(C(=O)N4CCc5ccccc54)cc23)c1` [Compound A11], for which the negative logarithm of the IC50 (pIC50) was 6.00 to 8.00.

With `CCCCc1n[nH]c2cc(O)c(C(=O)N3Cc4ccc(Br)cc4C3)cc12` [Compound A14, 5-(5-Bromo-1,3-dihydroisoindol-2-ylcarbonyl)-3-butyl-6-hydroxy-1H-indazole], the pIC50 was 5.00 to 6.00. On to `CCCc1n[nH]c2cc(O)c(C(=O)N3Cc4ccc(Br)cc4C3)cc12` [Compound A15, 5-(5-Bromo-1,3-dihydroisoindol-2-ylcarbonyl)-3-propyl-6-hydroxy-1H-indazole], for which the pIC50 is 6.00 to 8.00. For the compound `Cc1cccc(Cc2n[nH]c3cc(O)c(C(=O)N4CCCC4)cc23)c1` [Compound A16, 5-(Pyrrolidin-1-ylcarbonyl)-3-(3-methylbenzyl)-6-hydroxy-1H-indazole], the pIC50 is 6.00 to 8.00.

With `Cc1cccc(Cc2n[nH]c3cc(O)c(C(=O)N4CCN(C)CC4)cc23)c1` [Compound A17], the negative logarithm of the IC50 (pIC50) is 6.00 to 8.00. Take `O=C(c1cc2c(CC3CCCC3)n[nH]c2cc1O)N1Cc2ccccc2C1` [Compound A18, 5-(1,3-Dihydroisoindol-2-ylcarbonyl)-3-cyclopentylmethyl-6-hydroxy-1H-indazole]: the pIC50 was 6.00 to 8.00. On to `CCCc1n[nH]c2cc(O)c(C(=O)N3Cc4ccc(N5CCOCC5)cc4C3)cc12` [Compound A19], for which the pIC50 is 6.00 to 8.00. Take `CCCc1n[nH]c2cc(O)c(C(=O)N3Cc4ccc(N5CCN(C)CC5)cc4C3)cc12` [Compound A20]: the pIC50 was 6.00 to 8.00. In the case of `CCCc1n[nH]c2cc(O)c(C(=O)N3Cc4ccc(OCCN(C)C)cc4C3)cc12` [Compound A26, [5-(2-dimethylaminoethoxy)-1,3-dihydroisoindol-2-yl]-(6-hydroxy-3-propyl-1H-indazol-5-yl)methanone], the pIC50 is 6.00 to 8.00.

For the compound `CC(C)CCc1n[nH]c2cc(O)c(C(=O)N3Cc4ccc(OCCN(C)C)cc4C3)cc12` [Compound A27, [5-(2-dimethylaminoethoxy)-1,3-dihydroisoindol-2-yl]-[6-hydroxy-3-(3-methylbutyl)-1H-indazol-5-yl]methanone], the pIC50 was 6.00 to 8.00.

Regarding `CN(C)CCOc1ccc2c(c1)CN(C(=O)c1cc3c(CC4CCCC4)n[nH]c3cc1O)C2` [Compound A28, (3-cyclopentylmethyl-6-hydroxy-1H-indazol-5-yl)-[5-(2-dimethylaminoethoxy)-1,3-dihydroisoindol-2-yl]methanone], the pIC50 was 6.00 to 8.00. In the case of `CN(C)CCOc1ccc2c(c1)CN(C(=O)c1cc3c(CC4CCCCC4)n[nH]c3cc1O)C2` [Compound A29, (3-cyclohexylmethyl-6-hydroxy-1H-indazol-5-yl)-[5-(2-dimethylaminoethoxy)-1,3-dihydroisoindol-2-yl]methanone], the negative logarithm of the IC50 (pIC50) was 6.00 to 8.00.

On to `CC(C)CCc1n[nH]c2cc(O)c(C(=O)N3Cc4ccc(OC5CCN(C)CC5)cc4C3)cc12` [Compound A30, [6-hydroxy-3-(3-methylbutyl)-1H-indazol-5-yl]-[5-(1-methylpiperidin-4-yloxy)-1,3-dihydroisoindol-2-yl]methanone], for which the pIC50 is 6.00 to 8.00.

Consider `CN1CCC(Oc2ccc3c(c2)CN(C(=O)c2cc4c(CC5CCCC5)n[nH]c4cc2O)C3)CC1` [Compound A31, (3-cyclopentylmethyl-6-hydroxy-1H-indazol-5-yl)-[5-(1-methylpiperidin-4-yloxy)-1,3-dihydroisoindol-2-yl]methanone], for which the pIC50 was 6.00 to 8.00. The same measure for `CN1CCC(Oc2ccc3c(c2)CN(C(=O)c2cc4c(CC5CCCCC5)n[nH]c4cc2O)C3)CC1` [Compound A32, (3-Cyclohexylmethyl-6-hydroxy-1H-indazol-5-yl)-[5-(1-methylpiperidin-4-yloxy)-1,3-dihydroisoindol-2-yl]methanone]: 6.00 to 8.00; for `CC(C)CCc1n[nH]c2cc(O)c(C(=O)N3Cc4ccc(OCCCN(C)C)cc4C3)cc12` [Compound A33, [5-(3-Dimethylaminopropoxy)-1,3-dihydroisoindol-2-yl]-[6-hydroxy-3-(3-methylbutyl)-1H-indazol-5-yl]methanone]: 6.00 to 8.00. As to `CN(C)CCCOc1ccc2c(c1)CN(C(=O)c1cc3c(CC4CCCC4)n[nH]c3cc1O)C2` [Compound A34], the pIC50 was 6.00 to 8.00. For `CN(C)CCCOc1ccc2c(c1)CN(C(=O)c1cc3c(CC4CCCCC4)n[nH]c3cc1O)C2` [Compound A35, (3-Cyclohexylmethyl-6-hydroxy-1H-indazol-5-yl)-[5-(3-dimethylaminopropoxy)-1,3-dihydroisoindol-22-yl]methanone], the negative-log IC50 (pIC50) was 6.00 to 8.00.

`CCN(C)CCOc1ccc2c(c1)CN(C(=O)c1cc3c(CCC(C)C)n[nH]c3cc1O)C2` [Compound A36, {5-[2-(Ethylmeethylamino)ethoxy]-1,3-dihydroisoindol-22-yl}-[6-hydroxy-3-(3-methylbutyl)-1H-indazol-5-yl]methanone]: the pIC50 was 6.00 to 8.00. For `CCN(C)CCOc1ccc2c(c1)CN(C(=O)c1cc3c(CC4CCCC4)n[nH]c3cc1O)C2` [Compound A37, (3-Cyclopentylmethyl-6-hydroxy-1H-indazol-5-yl)-{5-[2-(ethylmethylamino)ethoxy]-1,3-dihydroisoindol-2-yl}methanone], the pIC50 was 6.00 to 8.00. On to `CCN(C)CCOc1ccc2c(c1)CN(C(=O)c1cc3c(CC4CCCCC4)n[nH]c3cc1O)C2` [Compound A38, (3-Cyclohexylmethyl-6-hydroxy-1H-indazol-5-yl)-{5-[2-(ethylmethylamino)ethoxy]-1,3-dihydroisoindol-2-yl}methanone], for which the pIC50 is 6.00 to 8.00.

With `CC(C)CCc1n[nH]c2cc(O)c(C(=O)N3Cc4ccc(OCCN5CCCCC5)cc4C3)cc12` [Compound A39, [6-Hydroxy-3-(3-methylbutyl)-1H-indazol-5-yl]-[5-(2-piperidin-1-ylethoxy)-1,3-dihydroisoindol-2-yl]methanone], the pIC50 is 6.00 to 8.00. Take `O=C(c1cc2c(CC3CCCC3)n[nH]c2cc1O)N1Cc2ccc(OCCN3CCCCC3)cc2C1` [Compound A40, (3-Cyclopentylmethyl-6-hydroxy-1H-indazol-5-yl)-[5-(2-piperidin-1-ylethoxy)-1,3-dihydroisoindol-2-yl]methanone]: the negative logarithm of the IC50 (pIC50) was 6.00 to 8.00.

For `O=C(c1cc2c(CC3CCCCC3)n[nH]c2cc1O)N1Cc2ccc(OCCN3CCCCC3)cc2C1` [Compound A41, (3-Cyclohexylmethyl-6-hydroxy-1H-indazol-5-yl)-[5-(2-piperidin-1-ylethoxy)-1,3-dihydroisoindol-2-yl]methanone], the pIC50 is 6.00 to 8.00. Consider `N#CCCCOc1ccc2c(c1)CN(C(=O)c1cc3c(CC4CCCC4)n[nH]c3cc1O)C2` [Compound A43, 4-[2-(3-Cyclopentylmethyl-6-hydroxy-1H-indazole-5-carbonyl)-2,3-dihydro-1H-isoindol-5-yloxy]butyronitrile], for which the pIC50 was 6.00 to 8.00.

For the compound `O=C(c1cc2c(CC3CCCCC3)n[nH]c2cc1O)N1Cc2ccc(OCCN3CCOCC3)cc2C1` [Compound A47, (3-Cyclohexylmethyl-6-hydroxy-1H-indazol-5-yl)-[5-(2-morpholin-4-ylethoxy)-1,3-dihydroisoindol-2-yl]methanone], the pIC50 is 6.00 to 8.00. Consider `CCCc1n[nH]c2cc(O)c(C(=O)N3Cc4ccccc4C3C(=O)NCC)cc12` (stereo not drawn) [Compound A48, N-Ethyl-2-(6-hydroxy-3-propyl-1H-indazole-5-carbonyl)-2,3-dihydro-1H-isoindole-1-carboxamide], for which the pIC50 was 5.00 to 6.00. As for `CC(C)Cc1n[nH]c2cc(O)c(C(=O)N3Cc4ccccc4C3)cc12` [Compound A49, (1,3-Dihydroisoindol-2-yl)(6-hydroxy-3-isobutyl-1H-indazol-5-yl)methanone], the negative logarithm of the IC50 (pIC50) was 6.00 to 8.00. `O=C(c1cc2c(CC3CCCCC3)n[nH]c2cc1O)N1Cc2ccccc2C1` [Compound A50, (3-Cyclohexylmethyl-6-hydroxy-1H-indazol-5-yl)-(1,3-dihydroisoindol-2-yl)methanone]: the pIC50 is 6.00 to 8.00.
